Test results taken from US7501421B2, “Benzoxazole and benzothiazole derivatives as 5-hydroxytryptamine-6 ligands” (Wyeth, priority 2006, dated 2009).
Where a name gives a salt, the structure may show the parent alone.

biological target: human cloned 5-HT6 receptors (Homo sapiens, UniProt P50406); assay: Evaluation of 5-HT6 binding affinity ([3H]-LSD radioligand binding)
Sequence (P50406 whole entry): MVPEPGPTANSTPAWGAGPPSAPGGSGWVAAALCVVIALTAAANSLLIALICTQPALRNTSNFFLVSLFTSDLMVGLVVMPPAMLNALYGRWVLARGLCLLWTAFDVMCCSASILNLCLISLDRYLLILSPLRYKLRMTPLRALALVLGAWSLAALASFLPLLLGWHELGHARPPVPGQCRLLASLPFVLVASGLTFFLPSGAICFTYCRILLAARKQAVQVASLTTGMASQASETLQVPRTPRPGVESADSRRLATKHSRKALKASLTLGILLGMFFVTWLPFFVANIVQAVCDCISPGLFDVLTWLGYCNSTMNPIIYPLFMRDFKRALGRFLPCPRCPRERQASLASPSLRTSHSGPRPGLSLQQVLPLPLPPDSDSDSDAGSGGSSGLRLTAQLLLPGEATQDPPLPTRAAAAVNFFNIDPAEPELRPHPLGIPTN

| Compound | Ki [nM] |
| --- | --- |
| O=S(=O)(c1cccc2ccccc12)c1cccc2oc(N3CCN(C4CCCC4)CC3)nc12 [Example 30] | 78 |
| O=S(=O)(c1ccccc1)c1cccc2oc(N3CCNCC3)nc12 [Example 13] | 67 |
| O=S(=O)(c1cccc2ccccc12)c1cccc2nc(N3CCNCC3)oc12 [Example 34, 7-(1-naphthylsulfonyl)-2-piperazin-1-ylbenzoxazole Dihydrochloride] | 7 |
| O=S(=O)(c1ccc2nc(N3CCNCC3)sc2c1)c1cccc2ccccc12 [Example 41, 6-(1-Naphthylsulfonyl)-2-piperazin-1-ylbenzothiazole Dihydrochloride] | 500 |
| CN1CCN(c2nc3c(S(=O)(=O)c4cccc5ccccc45)cccc3o2)CC1 [Example 22, 2-(4-Methylpiperazin-1-yl)-4-(1-naphthylsulfonyl)benzoxazole Dihydrochloride] | 10 |
| O=S(=O)(c1cccc2ccccc12)c1cccc2oc(N3CCN(C4CCCCC4)CC3)nc12 [Example 31] | 91 |
